Results: patent publication US10028992B2, “Methods of treating muscular dystrophy” (BOARD OF REGENTS OF THE NEVADA SYSTEM OF HIGHER EDUCATION …, priority 2012, dated 2018)

Test system: α7 integrin promoter
Assay: muscle cell-based assay: α7βgal+/− myoblasts/myotubes, LacZ reporter, β-galactosidase cleavage of FDG
Set-up: species or system mouse; Results in α7+/− β-galactosidase assay: scale not given here
Conditions: for Results in a α7+/− β-galactosidase assay, Myotubes, 0.5 uM: compound at 0.5 uM; for Results in a α7+/− β-galactosidase assay, Myotubes, 1 uM: compound at 1 uM; for Results in a α7+/− β-galactosidase assay, Myotubes, 5 uM: compound at 5 uM; for Results in a α7+/− β-galactosidase assay, Myotubes, 10 uM: compound at 10 uM; for Results in a α7+/− β-galactosidase assay, Myotubes, 20 uM: compound at 20 uM; for Results in a α7+/− β-galactosidase assay, Myotubes, 40 uM: compound at 40 uM; for AC50 / Emax / EC50: Mus musculus; for AC50: read-out: Fit Log AC50 (converted); for Emax: read-out: Max Response [%]; for Fit Curve Class: key not given; for EC50: given as log AC50 (negative values), read-out: Fit LogAC50 (converted); for Results in α7+/− β-galactosidase assay: Myoblasts
Experimental: An α7 integrin null mouse was produced in which exon 1 of the gene encoding the α7 integrin was replaced by the LacZ reporter. In these mice, all the transcriptional regulatory elements of the α7 integrin promoter were retained, allowing β-galactosidase to report expression of 7 integrin. A primary myoblast cell line (designated α7βgal^+/−) isolated from 10 day old α7^+/− pups were analyzed for the ability of β-galactosidase to report α7 integrin expression. α7βgal^+/− myoblasts were differentiated and subjected to X-gal staining and western analysis (FIGS. 1A and 1B).
The activity of the α7 integrin promoter was measured by β-galactosidase cleavage of the non-fluorescent compound fluorescein di-β-D-galactopyranoside (FDG) to fluorescein. This assay was used to screen compound libraries to identify molecules that up-regulate α7 integrin expression in muscle.
Also evaluated was the effect of various isoforms of laminin and the ligand for α7β1 integrin on integrin expression. Positive hits were subjected to dose-response analysis, western analysis and a myostatin counterscreen (a negative regulator of muscle growth).

[1] = Table 12, log of AC50, given with negative sign, unit of AC50 not given
[2] = Table 12, fitted activity at zero concentration
[3] = Table 12 Compound data, concentration-response curve fit
[4] = curve fit, activity at zero concentration

## Cc1ccc2c(c1)/C(=C/c1ccco1)C(=O)N2 [drawing 488]
  Results in a α7+/− β-galactosidase assay, Myotubes, 0.5 uM: −0.00427
  Results in a α7+/− β-galactosidase assay, Myotubes, 1 uM: −0.00615
  Results in a α7+/− β-galactosidase assay, Myotubes, 5 uM: 0.07579
  Results in a α7+/− β-galactosidase assay, Myotubes, 10 uM: −0.3334
  Results in a α7+/− β-galactosidase assay, Myotubes, 20 uM: 0.0134
  Results in a α7+/− β-galactosidase assay, Myotubes, 40 uM: −0.2855

## Cc1ccc(C2Nc3cccc4cccc(c34)N2)s1 [Compound 24]
[1]
  AC50: 3.16 µM
  Emax: 81.3%
Table 12, curve fit
  Fit HillSlope: 2.1211
[2]
  Fit Zero Activity [%]: 5.7274%
Table 12
  Fit Curve Class: 1.1
[3]
  Score: 84

## CCOC(=O)C1CCCN(C(=O)CNS(=O)(=O)c2ccc(Br)s2)C1 (stereo not drawn) [Compound 33]
[1]
  AC50: 2 µM
  Emax: 31.1%
Table 12, curve fit
  Fit HillSlope: 1.1
[2]
  Fit Zero Activity [%]: −50.1655%
Table 12
  Fit Curve Class: 1.1
[3]
  Score: 82

## COC(=O)c1ccc(C2C(C(=O)c3cc4ccccc4o3)=C(O)C(=O)N2CCN2CCOCC2)cc1 (stereo not drawn) [Compound 141]
  EC50: 10 µM
Table 12 compound data
  Score: 42
Curve class number
  Fit Curve Class: 2.1
Curve fit
  Fit HillSlope: 4.9549
[4]
  Fit Zero Activity [%]: −17.8968%

## Cn1cc(CN2CCC(C(=O)Nc3cccc(-c4cscn4)c3)CC2)cn1 [drawing 702]
0.5 uM
  Results in α7+/− β-galactosidase assay: 0.1618
1 uM
  Results in α7+/− β-galactosidase assay: 0.05749
5 uM
  Results in α7+/− β-galactosidase assay: 0.02884
10 uM
  Results in α7+/− β-galactosidase assay: 0.2457
20 uM
  Results in α7+/− β-galactosidase assay: −0.3975
40 uM
  Results in α7+/− β-galactosidase assay: −0.5369

## COc1cc2c(cc1OC)C(NC(=O)C(F)(F)F)C/C2=N\O (stereo not drawn) [Compound 193]
  EC50: 11.2 µM
Table 12 compound data
  Score: 42
Curve class number
  Fit Curve Class: 2.1
Curve fit
  Fit HillSlope: 4.095
[4]
  Fit Zero Activity [%]: 2.547%

## CC(C)c1ccc(OC(=O)c2cccc(S(=O)(=O)N3CCN(C)CC3)c2)cc1 [drawing 606]
0.5 uM
  Results in α7+/− β-galactosidase assay: −0.02855
1 uM
  Results in α7+/− β-galactosidase assay: −0.1053
5 uM
  Results in α7+/− β-galactosidase assay: 0.3741
10 uM
  Results in α7+/− β-galactosidase assay: −0.02381
20 uM
  Results in α7+/− β-galactosidase assay: 0.03734
40 uM
  Results in α7+/− β-galactosidase assay: −0.08446

## O=S(=O)(N/C(=N/C1CCCCC1)c1ccccc1F)c1ccccc1 [drawing 334]
  Results in a α7+/− β-galactosidase assay, Myotubes, 0.5 uM: 0.1113
  Results in a α7+/− β-galactosidase assay, Myotubes, 1 uM: 0.07899
  Results in a α7+/− β-galactosidase assay, Myotubes, 5 uM: 0.00127
  Results in a α7+/− β-galactosidase assay, Myotubes, 10 uM: 0.03577
  Results in a α7+/− β-galactosidase assay, Myotubes, 20 uM: −0.0234
  Results in a α7+/− β-galactosidase assay, Myotubes, 40 uM: −0.0349

## CCOC(=O)c1cc(-c2cccs2)nc2c1c(C)nn2-c1ccccn1 [drawing 670]
0.5 uM
  Results in α7+/− β-galactosidase assay: 0.09738
1 uM
  Results in α7+/− β-galactosidase assay: 0.1342
5 uM
  Results in α7+/− β-galactosidase assay: −0.1204
10 uM
  Results in α7+/− β-galactosidase assay: −0.2068
20 uM
  Results in α7+/− β-galactosidase assay: −0.3072
40 uM
  Results in α7+/− β-galactosidase assay: −0.5198

## CC(NC(=O)c1ccc(C(C)(C)C)cc1)C(c1cccs1)N1CCOCC1 (stereo not drawn) [drawing 610]
0.5 uM
  Results in α7+/− β-galactosidase assay: 0.08931
1 uM
  Results in α7+/− β-galactosidase assay: 0.1802
5 uM
  Results in α7+/− β-galactosidase assay: 0.07478
10 uM
  Results in α7+/− β-galactosidase assay: −0.02239
20 uM
  Results in α7+/− β-galactosidase assay: −0.1131
40 uM
  Results in α7+/− β-galactosidase assay: −0.1382

## Cc1c(C(=O)O)cccc1-n1c(C)cc(/C=N/Nc2ccc([N+](=O)[O-])cn2)c1C [Compound 9]
  Max Response [%]: 88.6572%
0.307 μM
  Activity at 0.307 μM [%] **: −24.4743%
1.530 μM
  Activity at 1.530 μM [%] **: 6.2893%
7.660 μM
  Activity at 7.660 μM [%] **: 68.0567%
38.30 μM
  Activity at 38.30 μM [%] **: 88.6572%
Table 12, curve fit
  Fit HillSlope: 1.3723
Table 12, fitted activity at infinite concentration
  Fit Infinite Activity [%]: 92.2022%
[2]
  Fit Zero Activity [%]: −30.5005%
Table 12
  Fit Curve Class: 1.1
[1]
  Fit Log AC50: −5.55
[3]
  Score: 85

## CC(C)CN(C(=O)c1cccc(Cl)c1)c1c(N)n(Cc2ccccc2)c(=O)[nH]c1=O [drawing 336]
  Results in a α7+/− β-galactosidase assay, Myotubes, 0.5 uM: 0.198
  Results in a α7+/− β-galactosidase assay, Myotubes, 1 uM: 0.2672
  Results in a α7+/− β-galactosidase assay, Myotubes, 5 uM: −0.02107
  Results in a α7+/− β-galactosidase assay, Myotubes, 10 uM: 0.07176
  Results in a α7+/− β-galactosidase assay, Myotubes, 20 uM: −0.1352
  Results in a α7+/− β-galactosidase assay, Myotubes, 40 uM: −0.2545
